Source: article PMC9127750, “Structure-based design of CDC42 effector interaction inhibitors for the treatment of cancer” (Cell reports, 2022)

System: WM3248 melanoma cells, 486 antibodies
Test: Reverse phase protein arrays (RPPA);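 as to Cyclin.B1.R.V RPPA level: ratio of treated to vehicle (0 µM) normalized linear protein signal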;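 as to Cyclin.E1.R.V RPPA level: ratio of treated to vehicle (0 µM) normalized linear protein signal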;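 as to DDB.1.R.V RPPA level: ratio of treated to vehicle (0 µM) normalized linear protein signal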;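 as to RPPA ACC1.R.C: ratio of treated to vehicle (0 µM) normalized linear protein signal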;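 as to RPPA ASNS.R.V: ratio of treated to vehicle (0 µM) normalized linear protein signal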;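 as to RPPA Akt1.R.V: ratio of treated to vehicle (0 µM) normalized linear protein signal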;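 as to RPPA Atg5.R.C: ratio of treated to vehicle (0 µM) normalized linear protein signal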;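 as to RPPA Bim.R.V: ratio of treated to vehicle (0 µM) normalized linear protein signal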
Type: cell-based, Human
Settings: 20 uM, Average
Text: Pellets were snap frozen in liquid nitrogen and shipped to MD Anderson Cancer Center core RPPA facility for RPPA analysis (Table S5). Three biological replicates for each sample were generated.
Nomenclatures on the RPPA heatmaps: name_of_antibody.species_of_antibody.status_of_antibody. V - antibody validated; C - validation of antibody in progress; Q - antibody nonspecific; E – under evaluation; antibodies raised in M - mouse, G - goat, R - rabbit, or T - rat.

CN(C)c1cccc(Nc2cc(-c3ccccc3)nc(C3CCNCC3)n2)c1 [ARN22089, N1,N1-dimethyl-N3-(6-phenyl-2-(piperidin-4-yl)pyrimidin-4-yl)benzene-1,3-diamine]
Caspase.8.cleaved.R.C RPPA level: 1.025 | Caveolin.1.R.V RPPA level: 0.842 | Cdc6.R.V RPPA level: 0.862 | Cdc42.R.C RPPA level: 1.017 | Chk1.M.C RPPA level: 0.898 | Chk1_pS345.R.C RPPA level: 1.107 | Chk2_pT68.R.C RPPA level: 1.241 | Complex.II.Subunit.M.V RPPA level: 0.945 | Coup.TFII.R.C RPPA level: 0.941 | Cox2.R.C RPPA level: 1.267 | Cox.IV.R.V RPPA level: 0.997 | CtIP.R.V RPPA level: 0.950 | Cyclin.B1.R.V RPPA level: 1.134 | Cyclin.D3.M.V RPPA level: 0.840 | Cyclin.E1.R.V RPPA level: 0.959 | Cyclophilin.F.M.V RPPA level: 0.926 | D.a.Tubulin.R.V RPPA level: 1.029 | DAPK1_pS308.M.C RPPA level: 1.208 | DAPK2.R.C RPPA level: 1.003 | DDB.1.R.V RPPA level: 0.948 | DDR1.R.V RPPA level: 1.002 | DDR1_pY513.R.C RPPA level: 1.125 | DJ1.R.V RPPA level: 0.948 | DM.Histone.H3.R.V RPPA level: 2.021 | DM.K9.Histone.H3.M.V RPPA level: 1.447 | DNA.Ligase.IV.R.C RPPA level: 0.981 | DNA_POLG.R.V RPPA level: 1.025 | RPPA A.Raf.R.V: 1.015 | RPPA A.Raf_pS299.R.C: 1.034 | RPPA ACC1.R.C: 0.857 | RPPA ACLY_pS455.R.V: 1.046 | RPPA ACSL1.R.V: 0.954 | RPPA ACVRL1.R.C: 1.002 | RPPA ADAR1.M.V: 1.149 | RPPA ALKBH5.R.V: 1.061 | RPPA AMPK.a2_pS345.R.V: 1.050 | RPPA AMPKa.R.C: 1.055 | RPPA AMPKa_pT172.R.C: 2.324 | RPPA AR.R.V: 1.058 | RPPA ARID1A.R.C: 1.550 | RPPA ASNS.R.V: 0.982 | RPPA ATM.R.V: 0.922 | RPPA ATM_pS1981.R.V: 1.048 | RPPA ATP5A.M.C: 1.010 | RPPA ATR.R.V: 0.999 | RPPA ATRX.R.C: 1.085 | RPPA ATR_pS428.R.C: 1.058 | RPPA AceCS1.R.V: 0.988 | RPPA Akt1.R.V: 0.884 | RPPA Akt1_pS473.R.V: 1.015 | RPPA Akt2.R.V: 0.884 | RPPA Akt2_pS474.R.C: 1.034 | RPPA Akt.R.V: 0.924 | RPPA Akt_pS473.R.V: 0.837 | RPPA Ambra1_pS52.R.C: 1.060 | RPPA Annexin.I.M.V: 0.985 | RPPA Annexin.VII.M.V: 0.970 | RPPA Atg3.R.V: 0.967 | RPPA Atg4B.R.C: 0.915 | RPPA Atg5.R.C: 0.922 | RPPA Atg7.R.V: 0.846 | RPPA Aurora.A.R.C: 1.195 | RPPA Aurora.ABC_pT288_pT232_pT198.R.C: 0.954 | RPPA Aurora.B.R.V: 1.362 | RPPA Axl.R.V: 0.993 | RPPA B7.H3.R.C: 0.942 | RPPA B7.H4.R.C: 0.993 | RPPA B.Raf.R.C: 0.957 | RPPA BAP1.M.V: 0.964 | RPPA BCL2A1.R.V: 1.025 | RPPA BMK1.Erk5_pT218_Y220.R.V: 0.950 | RPPA BRCA1.M.C: 1.124 | RPPA BRD4.R.V: 1.303 | RPPA Bak.R.C: 1.033 | RPPA Bax.R.V: 1.025 | RPPA Bcl2.R.C: 1.107 | RPPA Bcl.xL.R.V: 1.064 | RPPA Beclin.R.C: 0.977 | RPPA BiP.GRP78.M.C: 0.989 | RPPA Bid.R.C: 0.971 | RPPA Bim.R.V: 1.023 | RPPA DNMT1.R.V: 0.908 | RPPA DRP1.R.V: 0.953 | RPPA DUSP4.R.V: 0.738 | RPPA DUSP6.R.C: 1.449 | RPPA DYRK1B.R.C: 1.005 | RPPA Dvl3.R.V: 1.056 | RPPA E2F1.R.V: 1.239 | RPPA E.Cadherin.R.V: 0.959 | RPPA EGFR.R.V: 1.079 | RPPA EGFR_pY1068.R.C: 0.971 | RPPA EMA.M.C: 0.929 | RPPA ENY2.M.C: 0.931 | RPPA ER.a.R.V: 0.988 | RPPA ER.a_pS118.R.V: 1.453 | RPPA ERCC1.R.C: 1.065 | RPPA ERCC5.R.C: 1.014 | RPPA ERRalpha.R.V: 1.009 | RPPA Elk1_pS383.R.C: 1.100 | RPPA Enolase.1.R.V: 0.939 | RPPA Enolase.2.R.V: 0.991 | RPPA EphA2.R.V: 0.816 | RPPA EphA2_pS897.R.C: 0.726 | RPPA EphA2_pY588.R.C: 1.016 | RPPA Erk5.R.V: 0.946 | RPPA Ets.1.R.V: 1.154 | RPPA FABP5.R.C: 1.025 | RPPA FAK.R.C: 1.003 | RPPA FAK_pY397.R.V: 1.007 | RPPA FANCD2.R.V: 0.924 | RPPA FASN.R.V: 0.845 | RPPA FGF.basic.R.C: 0.992 | RPPA FOXM1.R.V: 1.057 | RPPA FOXO3.R.V: 1.019 | RPPA FRS2.alpha_pY196.R.V: 1.009 | RPPA FTO.R.V: 0.977 | RPPA Fibronectin.R.V: 0.989 | RPPA FoxO3a_pS318_S321.R.C: 1.005 | RPPA G6PD.R.V: 0.983 | RPPA GATA6.R.V: 0.981 | RPPA GCLC.R.C: 0.993 | RPPA GCLM.R.V: 0.999 | RPPA GCN5L2.R.V: 1.002 | RPPA GRB2.R.V: 0.956 | RPPA GSK.3B.R.C: 0.901 | RPPA GSK.3a.b.M.V: 0.957 | RPPA GSK.3a.b_pS21_S9.R.V: 1.052 | RPPA Gli1.R.C: 0.953 | RPPA Gli3.R.C: 1.116 | RPPA Glucocorticoid.Receptor.R.V: 1.130 | RPPA Glutaminase.R.C: 1.024 | RPPA Grp75.R.C: 1.172 | RPPA Gys.R.V: 1.003 | RPPA Gys_pS641.R.V: 0.884 | RPPA H2AX_pS139.R.C: 1.441 | RPPA H2AX_pS140.M.C: 1.148 | RPPA HER2.M.V: 0.983 | RPPA HER2_pY1248.R.V: 1.026 | RPPA HER3.R.V: 0.916 | RPPA HER3_pY1289.R.C: 1.009 | RPPA HES1.R.V: 1.049 | RPPA Heregulin.R.V: 1.013 | RPPA X4E.BP1.R.V: 1.246 | RPPA X4E.BP1_pS65.R.V: 0.859 | RPPA X4E.BP1_pT37_T46.R.V: 0.868 | RPPA X14.3.3.zeta.R.V: 0.922 | RPPA X14.3.3βR.V: 1.078 | RPPA X14.3.3εM.C: 0.929 | RPPA X53BP1.R.V: 1.047 | RPPA b.Actin.R.C: 1.098 | RPPA b.Catenin.R.V: 0.957 | RPPA c.Abl.R.V: 1.129 | RPPA c.Abl_pY412.R.C: 1.034 | RPPA c.IAP2.R.C: 1.063 | RPPA eEF2K.R.V: 1.262 | RPPA eIF4E.R.V: 1.164 | RPPA eIF4E_pS209.R.V: 1.101 | RPPA eIF4G.R.C: 1.116 | RPPA level HLA.DQA1.R.V: 1.019 | RPPA level HLA.DR.DP.DQ.DX.R.C: 1.117 | RPPA level HNRNPK.R.V: 1.028 | RPPA level HSP27.M.C: 0.864 | RPPA level HSP60.R.V: 1.000
